Assay results published in ChEMBL document CHEMBL1764969, “Design, synthesis and structure-activity relationship (SAR) studies of 2,4-disubstituted pyrimidine derivatives: dual activity as cholinesterase and Aβ-aggregation inhibitors” (Bioorg Med Chem, 2011).

Key:
Butyrylcholinesterase = Butyrylcholinesterase (Equus caballus, UniProt Q9N1N9)
Description: Inhibition of equine BChE incubated with compounf for 5 mins before addition of substrate S-butyrylthiocholine iodide by Ellman's method

Acetylcholinesterase = Acetylcholinesterase (Homo sapiens, UniProt P22303)
Acetylcholinesterase, sequence (P22303 whole entry): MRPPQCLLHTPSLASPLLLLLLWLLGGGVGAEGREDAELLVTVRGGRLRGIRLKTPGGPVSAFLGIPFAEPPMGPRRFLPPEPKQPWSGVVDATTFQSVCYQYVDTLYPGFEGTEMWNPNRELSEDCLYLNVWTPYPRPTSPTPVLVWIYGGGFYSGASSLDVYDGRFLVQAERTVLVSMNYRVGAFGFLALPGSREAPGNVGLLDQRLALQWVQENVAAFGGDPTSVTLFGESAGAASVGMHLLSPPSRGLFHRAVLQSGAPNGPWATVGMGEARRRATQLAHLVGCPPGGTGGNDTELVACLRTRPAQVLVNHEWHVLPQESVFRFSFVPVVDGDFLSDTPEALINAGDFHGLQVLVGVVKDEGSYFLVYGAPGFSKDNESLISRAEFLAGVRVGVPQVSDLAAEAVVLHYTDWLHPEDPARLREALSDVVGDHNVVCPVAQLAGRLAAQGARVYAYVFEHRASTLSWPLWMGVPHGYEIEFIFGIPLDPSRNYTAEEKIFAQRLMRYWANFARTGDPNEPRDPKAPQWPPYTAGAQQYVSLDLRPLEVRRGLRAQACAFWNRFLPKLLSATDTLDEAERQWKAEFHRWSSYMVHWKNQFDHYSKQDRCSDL
Description: Inhibition of human AChE incubated with compounf for 5 mins before addition of substrate acetylthiocholine iodide by Ellman's method

Butyrylcholinesterase, sequence (Q9N1N9 whole entry): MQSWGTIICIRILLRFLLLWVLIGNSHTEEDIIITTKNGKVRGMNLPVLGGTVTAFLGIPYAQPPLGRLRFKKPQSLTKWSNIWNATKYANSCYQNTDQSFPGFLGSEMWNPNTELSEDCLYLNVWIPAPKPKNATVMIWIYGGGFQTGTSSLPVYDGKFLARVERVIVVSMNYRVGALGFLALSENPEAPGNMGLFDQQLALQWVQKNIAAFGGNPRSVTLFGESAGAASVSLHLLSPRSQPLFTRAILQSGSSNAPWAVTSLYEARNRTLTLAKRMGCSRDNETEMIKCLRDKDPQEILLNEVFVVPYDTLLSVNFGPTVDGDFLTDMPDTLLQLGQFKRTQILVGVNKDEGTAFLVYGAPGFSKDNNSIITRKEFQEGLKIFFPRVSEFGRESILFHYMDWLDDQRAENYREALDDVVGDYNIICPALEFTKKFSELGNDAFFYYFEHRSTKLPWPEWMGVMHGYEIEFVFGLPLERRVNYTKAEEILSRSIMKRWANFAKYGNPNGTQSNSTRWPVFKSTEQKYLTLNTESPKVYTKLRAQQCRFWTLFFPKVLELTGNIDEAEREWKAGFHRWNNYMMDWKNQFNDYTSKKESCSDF

Structure (SMILES) | IC50 (Butyrylcholinesterase) [µM] | IC50 (Acetylcholinesterase) [µM]
CC1CCN(c2nccc(NCc3ccccc3)n2)CC1 | 3.4 | 18.4
c1ccc(CCNc2ccnc(N3CCCC3)n2)cc1 | – | 9.8
c1ccc(CCNc2ccnc(N3CCSCC3)n2)cc1 | > 100 | 26.4
CN1CCN(c2nccc(NCCc3ccccc3)n2)CC1 | > 100 | 20.4
CC1CCN(c2nccc(NCCc3ccccc3)n2)CC1 | 17.7 | 8.8
c1ccc2c(CNc3ccnc(N4CCCC4)n3)cccc2c1 | 8.9 | 5.5
c1ccc2c(CNc3ccnc(N4CCOCC4)n3)cccc2c1 | 28 | 14.7
c1ccc2c(CNc3ccnc(N4CCSCC4)n3)cccc2c1 | – | 12.8
CN1CCN(c2nccc(NCc3cccc4ccccc34)n2)CC1 | 2.6 | 17.5
CN1CCN(c2nccc(NCc3ccccc3)n2)CC1 | > 100 | 24.9
c1ccc(CCNc2ccnc(N3CCOCC3)n2)cc1 | > 100 | 19.7
c1ccc(CNc2ccnc(N3CCCC3)n2)cc1 | 26.4 | 8.7
c1ccc(CNc2ccnc(N3CCOCC3)n2)cc1 | – | 14
c1ccc(CNc2ccnc(N3CCSCC3)n2)cc1 | 6.1 | 23.2
CC(=O)N1CCN(c2nccc(NCc3ccccc3)n2)CC1 | > 100 | 16.6
CC(C)(C)OC(=O)N1CCN(c2nccc(NCc3ccccc3)n2)CC1 | > 100 | 18.8
c1ccc(CNc2ccnc(N3CCN(C4CCCCC4)CC3)n2)cc1 | 7.6 | 22.9

Structure (SMILES) | IC50 (Butyrylcholinesterase) [µM] | IC50 (Acetylcholinesterase) [µM]
CC(C)N1CCN(c2nccc(NCc3ccccc3)n2)CC1 | 3.4 | 25
CC(C)C1CCN(c2nccc(NCc3ccccc3)n2)CC1 | 6.5 | 14.2
CCCN1CCN(c2nccc(NCc3ccccc3)n2)CC1 | 59.9 | 15.3
OCCN1CCN(c2nccc(NCc3ccccc3)n2)CC1 | > 100 | 26.4
COCCN1CCN(c2nccc(NCc3ccccc3)n2)CC1 | > 100 | 26.7
Clc1ccc(CN2CCN(c3nccc(NCc4ccccc4)n3)CC2)cc1 | 10.7 | 20.2
Brc1ccc(CN2CCN(c3nccc(NCc4ccccc4)n3)CC2)cc1 | 14.3 | 25.5
Fc1ccc(CN2CCN(c3nccc(NCc4ccccc4)n3)CC2)cc1 | 7.3 | 21.6
FC(F)(F)c1ccc(CN2CCN(c3nccc(NCc4ccccc4)n3)CC2)cc1 | > 100 | 28.8
c1ccc(CNc2ccnc(NC3CCN(Cc4ccccc4)CC3)n2)cc1 | 8.2 | 12.4
[O-][S+]1CCN(c2nccc(NCc3ccccc3)n2)CC1 | > 100 | 12.6
O=S1(=O)CCN(c2nccc(NCc3ccccc3)n2)CC1 | > 100 | 24.2
c1ccc(CNc2ccnc(N3CCNCC3)n2)cc1 | > 100 | 15.5
CC(=O)N1CCN(c2nccc(NCCc3ccccc3)n2)CC1 | > 100 | 19.9
CC1CCN(c2nccc(NCc3cccc4ccccc34)n2)CC1 | 2.2 | 25.8
c1ccc2c(NCCCCCCCNc3c4c(nc5ccccc35)CCCC4)c3c(nc2c1)CCCC3 | 0.01 | –
